# According to patent publication US9505824B2, “Antigen peptide derived from the sequence of epidermal growth factor receptor having T790M point mutation” (Kanagawa Prefectural Hospital Organization, priority 2012, dated 2016):
# Assays:
# HLA-A2 molecule [1] = experiment: HLA class I stabilization assay with TAP2-deficient RMA-S/A2 cells; format: binding; details: peptide 10 μg/ml
# [2] = system: PBMCs from HLA-A2+ healthy donors; experiment: Immunogenicity in PBMCs of HLA-A2+ healthy donors, IFN-γ ELISPOT against peptide-pulsed T2 cells; format: cell-based, human; details: PBMCs from 6 HLA-A2+ healthy donors, repeated stimulation with peptide 10 μg/ml
# From the text: FIG. 1. Immunogenicity of T790M-5 and T790M-7 peptides in peripheral blood mononuclear cells (PBMCs) from normal donors. Immunogenicity of T790M-5 and T790M-7 peptides was examined with PBMCs from 6 different HLA-A2^+ healthy donors.
# HLA-A2 molecule [3] = biological target: T1, HLA-A2 molecule (Homo sapiens, UniProt P04439, D140Y/D185E/D98H/E176V/E277Q/G131W/G231S/I119V/I121R/I166T/I218V/L300P/L318F/N151K/N90K/P208A/P217A/Q86G/Q94H/R138H/R169H/T345S); experiment: HLA class I stabilization assay with TAP2-deficient T2 cells; format: binding; details: T2 cells expressing HLA-A2
# T1 construct: TAP2-deficient T2 cells expressing HLA-A2; host or cells: T2 cells (TAP2-deficient, HLA-A2+)
# Protocol: FIG. 6. HLA-A2-binding capability of EGFR-T790M-derived peptides. The binding of selected peptides to an HLA-A2 molecule was evaluated by HLA class I stabilization assay with TAP2-deficient T2 cells expressing HLA-A2.
# The binding of predicted peptides to an HLA-A2 molecule was evaluated by HLA class I stabilization assay with TAP2-deficient T2 cells (HLA-A2+) (RIKEN, Saitama, Japan). After overnight culture in RPMI 1640 medium at 26° C., T2 cells were cultured for 3 hours at 26° C. in the presence of each synthetic peptide. The cells were cultured for 2.5 hours at 37° C., and then stained with anti-HLA-A2 antibody (BB7.2) (MBL, Nagoya, Japan), followed by analysis with flow cytometry. The binding capability of each peptide to the HLA-A2 molecule was evaluated by comparing the mean fluorescence intensity (MFI) of HLA-A2 expression of the peptide with those of the positive and the negative controls. The HLA-A2-restricted HIV peptide and CMV peptide were used as positive controls, and H-2K^b-restricted OVA peptide was used as a negative control.
binding to HLA-A2 (in words) (HLA-A2 molecule [3]),Sequence,HLA binding capability (%) (MFI increase of HLA-A2 expression) (HLA-A2 molecule [1]),healthy donors in whom T cell lines secreting IFN-γ in response to the peptide were established [2]
–,IMQLMPFGCL [Peptide T790M-4],0%,–
–,IMQLMPFGCLL [Peptide T790M-8],69.3%,none of the 6 healthy donors
higher binding,IMQLMPFGL [Peptide T790M-E],–,–
higher binding,IMQLMPFGV [Peptide T790M-D],–,–
confirmed to bind to HLA-A2,LIMQLMPFGC [Peptide T790M-3],0%,–
–,LTSTVQLIMQL [Peptide T790M-6],0%,–
–,QLIMQLMPFG [Peptide T790M-2],0%,–
–,VQLIMQLMPF [Peptide T790M-1],0%,–
